Source: PubChem BioAssay (NCI)
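1) Cells in 96-well plates. 2) Compound, 48 h, 5 concentrations. 3) Linear interpolation between surrounding doses. 4) Unreached endpoint = highest concentration. GI50 is the concentration that inhibits growth by half. TGI is the concentration that stops growth completely.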

Columns and labels:
Experiment in all cases: NCI tumour cell line growth inhibition, 48 h
786-0 renal = system: 786-0 renal
A498 renal = system: A498 renal
A549 NSCLC = system: A549 NSCLC
ACHN renal = system: ACHN renal
BT-549 breast = system: BT-549 breast
CAKI-1 renal = system: CAKI-1 renal
CCRF-CEM leukemia = system: CCRF-CEM leukemia
COLO 205 colon = system: COLO 205 colon
DU-145 prostate = system: DU-145 prostate
EKVX NSCLC = system: EKVX NSCLC
HCC-2998 colon = system: HCC-2998 colon
HCT-116 colon = system: HCT-116 colon
HCT-15 colon = system: HCT-15 colon
HL-60(TB) leukemia = system: HL-60(TB) leukemia
HOP-62 NSCLC = system: HOP-62 NSCLC
HOP-92 NSCLC = system: HOP-92 NSCLC
HS 578T breast = system: HS 578T breast
HT29 colon = system: HT29 colon
IGROV1 ovarian = system: IGROV1 ovarian
K-562 leukemia = system: K-562 leukemia
KM12 colon = system: KM12 colon
LOX IMVI melanoma = system: LOX IMVI melanoma
M14 melanoma = system: M14 melanoma
MALME-3M melanoma = system: MALME-3M melanoma
MCF7 breast = system: MCF7 breast
MDA-MB-231 breast = system: MDA-MB-231 breast
MDA-MB-435 = system: MDA-MB-435
MOLT-4 leukemia = system: MOLT-4 leukemia
NCI-H226 lung = system: NCI-H226 lung
NCI-H23 lung = system: NCI-H23 lung
NCI-H460 lung = system: NCI-H460 lung
NCI/ADR-RES ovarian = system: NCI/ADR-RES ovarian
OVCAR-4 ovarian = system: OVCAR-4 ovarian
OVCAR-5 ovarian = system: OVCAR-5 ovarian
OVCAR-8 ovarian = system: OVCAR-8 ovarian
PC-3 prostate = system: PC-3 prostate
RPMI-8226 leukemia = system: RPMI-8226 leukemia
RXF 393 renal = system: RXF 393 renal
SF-268 CNS = system: SF-268 CNS
SF-295 CNS = system: SF-295 CNS
SF-539 CNS = system: SF-539 CNS
SK-MEL-2 melanoma = system: SK-MEL-2 melanoma
SK-MEL-28 melanoma = system: SK-MEL-28 melanoma
SK-MEL-5 melanoma = system: SK-MEL-5 melanoma
SK-OV-3 ovarian = system: SK-OV-3 ovarian
SN12C renal = system: SN12C renal
SNB-19 CNS = system: SNB-19 CNS
SNB-75 CNS = system: SNB-75 CNS
SR leukemia = system: SR leukemia
SW-620 colon = system: SW-620 colon
T-47D breast = system: T-47D breast
TK-10 renal = system: TK-10 renal
U251 CNS = system: U251 CNS
UACC-257 melanoma = system: UACC-257 melanoma
UACC-62 melanoma = system: UACC-62 melanoma
UO-31 renal = system: UO-31 renal

With Oc1ccccc1-c1nnc(SCc2ccc(O)c3ncccc23)n1-c1ccccc1 the GI50 (786-0 renal) was 513 nM, the TGI (786-0 renal) was 12000 nM and the GI50 (A498 renal) was 1850 nM. The TGI (A498 renal) was 7440 nM, the GI50 (A549 NSCLC) was 441 nM and the TGI (A549 NSCLC) was > 100000 nM. The GI50 (ACHN renal) was 331 nM, the TGI (ACHN renal) was 26300 nM and the GI50 (BT-549 breast) was 494 nM. The TGI (BT-549 breast) was > 100000 nM, the GI50 (CAKI-1 renal) was 382 nM and the TGI (CAKI-1 renal) was 24600 nM. For the same compound, the GI50 (CCRF-CEM leukemia) was 379 nM, the TGI (CCRF-CEM leukemia) was > 100000 nM and the GI50 (COLO 205 colon) was 4010 nM. The TGI (COLO 205 colon) was 32000 nM, the GI50 (DU-145 prostate) was 498 nM and the TGI (DU-145 prostate) was > 90800 nM. For the same compound, the GI50 (EKVX NSCLC) was 437 nM, the TGI (EKVX NSCLC) was 9810 nM and the GI50 (HCC-2998 colon) was 552 nM. The TGI (HCC-2998 colon) was > 95200 nM, the GI50 (HCT-116 colon) was 325 nM and the TGI (HCT-116 colon) was > 100000 nM. The GI50 (HCT-15 colon) was 323 nM, the TGI (HCT-15 colon) was > 100000 nM and the GI50 (HL-60(TB) leukemia) was 326 nM. The TGI (HL-60(TB) leukemia) was 2380 nM, the GI50 (HOP-62 NSCLC) was 377 nM and the TGI (HOP-62 NSCLC) was > 21000 nM. It also gave a GI50 (HOP-92 NSCLC) of 106 nM, a TGI (HOP-92 NSCLC) of 654 nM and a GI50 (HS 578T breast) of 357 nM. The TGI (HS 578T breast) was > 100000 nM, the GI50 (HT29 colon) was 3620 nM and the TGI (HT29 colon) was > 51400 nM. For the same compound, the GI50 (IGROV1 ovarian) was 406 nM, the TGI (IGROV1 ovarian) was > 100000 nM and the GI50 (K-562 leukemia) was 270 nM. For the same compound, the TGI (K-562 leukemia) was > 100000 nM, the GI50 (KM12 colon) was 485 nM and the TGI (KM12 colon) was > 75300 nM. The GI50 (LOX IMVI melanoma) was 350 nM, the TGI (LOX IMVI melanoma) was > 35300 nM and the GI50 (M14 melanoma) was 418 nM. For the same compound, the GI50 (MALME-3M melanoma) was 806 nM, the TGI (MALME-3M melanoma) was 7890 nM and the GI50 (MCF7 breast) was 310 nM. The TGI (MCF7 breast) was > 100000 nM, the GI50 (MDA-MB-231 breast) was 432 nM and the TGI (MDA-MB-231 breast) was 24200 nM. The GI50 (MDA-MB-435) was 402 nM, the TGI (MDA-MB-435) was > 100000 nM and the GI50 (MOLT-4 leukemia) was 434 nM. For the same compound, the TGI (MOLT-4 leukemia) was > 100000 nM, the GI50 (NCI-H226 lung) was 1770 nM and the TGI (NCI-H226 lung) was > 100000 nM. The GI50 (NCI-H23 lung) was 412 nM, the TGI (NCI-H23 lung) was > 100000 nM and the GI50 (NCI-H460 lung) was 372 nM. For the same compound, the TGI (NCI-H460 lung) was > 100000 nM, the GI50 (NCI/ADR-RES ovarian) was 279 nM and the TGI (NCI/ADR-RES ovarian) was > 100000 nM. The GI50 (OVCAR-4 ovarian) was 641 nM, the TGI (OVCAR-4 ovarian) was > 100000 nM and the GI50 (OVCAR-5 ovarian) was 2110 nM. For the same compound, the TGI (OVCAR-5 ovarian) was > 100000 nM, the GI50 (OVCAR-8 ovarian) was 375 nM and the TGI (OVCAR-8 ovarian) was > 41500 nM. The GI50 (PC-3 prostate) was 488 nM, the TGI (PC-3 prostate) was > 100000 nM and the GI50 (RPMI-8226 leukemia) was 399 nM. The TGI (RPMI-8226 leukemia) was > 100000 nM, the GI50 (RXF 393 renal) was 666 nM and the TGI (RXF 393 renal) was 80200 nM. The GI50 (SF-268 CNS) was 475 nM, the TGI (SF-268 CNS) was > 100000 nM and the GI50 (SF-295 CNS) was 347 nM. For the same compound, the TGI (SF-295 CNS) was > 53800 nM, the GI50 (SF-539 CNS) was 438 nM and the TGI (SF-539 CNS) was 13700 nM. For the same compound, the GI50 (SK-MEL-2 melanoma) was 361 nM, the GI50 (SK-MEL-28 melanoma) was 543 nM and the TGI (SK-MEL-28 melanoma) was > 100000 nM. For the same compound, the GI50 (SK-MEL-5 melanoma) was 349 nM, the TGI (SK-MEL-5 melanoma) was 1530 nM and the GI50 (SK-OV-3 ovarian) was 376 nM. The TGI (SK-OV-3 ovarian) was > 19700 nM, the GI50 (SN12C renal) was 347 nM and the TGI (SN12C renal) was 52700 nM. The GI50 (SNB-19 CNS) was 378 nM, the TGI (SNB-19 CNS) was > 100000 nM and the GI50 (SNB-75 CNS) was 416 nM. The TGI (SNB-75 CNS) was > 58800 nM, the GI50 (SR leukemia) was 345 nM and the TGI (SR leukemia) was > 100000 nM. The GI50 (SW-620 colon) was 429 nM, the TGI (SW-620 colon) was > 100000 nM and the GI50 (T-47D breast) was 344 nM. The TGI (T-47D breast) was > 100000 nM, the GI50 (TK-10 renal) was 417 nM and the TGI (TK-10 renal) was > 100000 nM. For the same compound, the GI50 (U251 CNS) was 363 nM, the TGI (U251 CNS) was > 100000 nM and the GI50 (UACC-257 melanoma) was 514 nM. The TGI (UACC-257 melanoma) was > 26800 nM, the GI50 (UACC-62 melanoma) was 426 nM and the TGI (UACC-62 melanoma) was 2540 nM. It also gave a GI50 (UO-31 renal) of 291 nM and a TGI (UO-31 renal) of 2480 nM.
